How the values were obtained:
[1] = Ex.8 therapeutic HIE rat model (E4 alone or combinations): rectal temperature; format: in vivo; details: vs sham
Protocol: All the compounds used for in vivo studies were dissolved in absolute Ethanol (ETOH) and further diluted in saline solution at a final concentration of ETOH 10%. An equal volume (5 μ1/g) of the solution was injected intraperitoneally (ip) into the pups from study groups. Rat pups from the vehicle group were ip injected a saline solution containing 10% ETOH. Rat pups from the Sham group were not injected at all.
To study the therapeutic effect of estetrol, newborn rat pups were assigned to one of the following 14 groups at postnatal day 7 (FIG. 23(B)): Sham group (n=12), Vehicle (n=15), 5 mg/kg/day E4 (n=11), 10 mg/kg/day E4 (n=11), 5 mg/kg/day E4+1.6 mg/kg/day PROG (n=11), 10 mg/kg/day E4+1.6 mg/kg/day PROG (n=11), 5 mg/kg/day E4+16 mg/kg/day PROG (n=11), 10 mg/kg/day E4+16 mg/kg/day PROG (n=13), 5 mg/kg/day E4+136 ng//kg/day E2 (n=11), 10 mg/kg/day E4+136 ng/kg/day E2 (n=11), 5 mg/kg/day E4+1.6 mg/kg/day PROG+136 ng/kg/day E2 (n=12), 10 mg/kg/day E4+1.6 mg/kg/day PROG+136 ng/kg/day E2 (n=11), 5 mg/kg/day E4+16 mg/kg/day PROG+136 ng/kg/day E2 (n=11), 10 mg/kg/day E4+16 mg/kg/day PROG+136 ng/kg/day (n=12) groups. […]
The rectal temperature of the rat pups was measured with a multipurpose thermometer (BAT-10R, Physitemp Instruments Inc., Clifton, N.J., US) along with a rectal probe (RET-4, BioMedical Instruments, Zollnitz, Germany) at 0, 2, and 4 hours after exposure to hypoxic insult. […]

doublecortin (DCX) = test: Ex.4 therapeutic HIE rat model: doublecortin staining; format: in vivo
Protocol: The sections were heated in 10 mmol/L citrate buffer (pH 6.0) at 100° C. for 10 minutes. Endogenous peroxidase activity was blocked with 3% hydrogen peroxide for 10 minutes and after a second blocking with 5% normal goat serum, the sections were incubated with anti-doublecortin (DCX) antibody, diluted 1:1000 (rabbit polyclonal antibody; Abcam, Cambridge, UK) and anti-vascular endothelial growth factor (VEGF) antibody, diluted 1:100 (mouse monoclonal antibody; Abcam, Cambridge, UK) overnight at 4° C. After rinsing, Alexa Fluor® goat anti-rabbit, diluted 1:1000 and Alexa Fluor® goat anti-mouse, diluted 1:1000 (Invitrogen Inc., Ghent, Belgium) were added and sections were incubated 1 h at room temperature. Mounting medium containing 4′,6-diamidino-2-phenylindole (DAPI) for fluorescent studies was used (Vector Laboratories). Samples were analyzed with the aid of a microscope (Olympus Vanox AHBT3, Olympus), and the ImageJ software (NIH). The percentage of positively stained cells was quantified as a sum of positively stained either DCX or VEGF cells divided by the total number of DAPI positive cells expressed in percentage.
To study the therapeutic effect of estetrol, newborn rat pups were assigned to one of the following 6 groups at postnatal day 7: sham group (n=29), vehicle group (n=20), 1 mg/kg E4 group (n=16), 5 mg/kg E4 group (n=19), 10 mg/kg day E4 (n=17) and 50 mg/kg day E4 group (n=15). At postnatal day 7 animals were anesthetized with isoflurane (induction, 3.0%; maintenance, 1.5%), and the rat pups from vehicle and E4 groups passed through surgery encompassing left common carotid artery double ligation and cut. After surgery, the pups were returned to their dams and allowed to recover for 1 hour. The pups were then placed in a humidified hypoxic in vivo cabinet (CoyLab). Hypoxia was produced by the inhalation of 11%-8% of oxygen balanced by nitrogen at decreased concentration of oxygen for 20 minutes, followed by inhalation of 8% oxygen and 92% nitrogen at constant concentration for 35 minutes. All the manipulations were performed at 37° C.
Upon retrieval from the hypoxia chamber the rat pups were injected intraperitoneally either by vehicle (vehicle group) or by E4 (1 mg/kg, 5 mg/kg, 10 mg/kg or 50 mg/kg) in accordance to the group assignment. The animals from the sham group went through similar procedures but proceeded neither left common carotid artery ligation and cut followed by hypoxia nor vehicle or estetrol administration. Rat pups recovered with their dams until being sacrificed at postnatal day 14.

Structure (SMILES): C[C@]12CC[C@@H]3c4ccc(O)cc4CC[C@H]3[C@@H]1[C@@H](O)[C@@H](O)[C@@H]2O [E4, 1,3,5(10)-estratrien-3,15α,16α,17β-tetrol]
- rectal temperature ([1]; 5 mg/kg/day E4, 4 h after HI, E4+E2 and E4+16 mg/kg/day PROG+E2): significantly higher rectal temperature
- rectal temperature ([1]; 10 mg/kg/day E4, 4 h after HI, E4+E2 and E4+16 mg/kg/day PROG): significant increase of the rectal temperature
- percentage of DCX positively stained cells (doublecortin (DCX); 5 mg/kg E4 single ip dose after HI, cortex): 45.2±3.339%
- percentage of DCX positively stained cells (doublecortin (DCX); 10 mg/kg E4 single ip dose after HI, CA1): 37.1±3.84
- percentage of DCX positively stained cells (doublecortin (DCX); 10 mg/kg E4 single ip dose after HI, CA2/CA3): 42.5±5.986%
- percentage of DCX positively stained cells (doublecortin (DCX); 10 mg/kg E4 single ip dose after HI, cortex): 49.4±4.949%
- percentage of DCX positively stained cells (doublecortin (DCX); 50 mg/kg E4 single ip dose after HI, CA1): 37.3±4.784%
- percentage of DCX positively stained cells (doublecortin (DCX); 50 mg/kg E4 single ip dose after HI, cortex): 49.6±3.11%
- DCX staining (doublecortin (DCX); E4 1, 5, 10, 50 mg/kg single ip dose after HI, DG, among study groups): neither DCX nor VEGF staining was significantly different

Source: patent US9808470B2, “Estrogenic components for use in the treatment of neurological disorders” (UNIVERSITE DE LIEGE, priority 2012, dated 2017)
